Source: PMC7914897, “Cytotoxic Potential of a-Azepano- and 3-Amino-3,4-SeCo-Triterpenoids” (International Journal of Molecular Sciences, 2021)
Like-named read-outs stand apart in the source and are kept apart here.

Experiments:
[1] = tested on: NCI-H23 (NSC lung cancer); test: NCI-60 screen (SRB, 48 h); details: Homo sapiens; for GI50: NCI-H23
CCRF-CEM (Leukemia) = test: NCI-60 screen (SRB, 48 h); details: Homo sapiens; for CC50: read-out: LC50
U251 (CNS cancer) = test: NCI-60 screen (SRB, 48 h); details: Homo sapiens; for GI50: U-251
SF-295 (CNS cancer) = test: NCI-60 screen (SRB, 48 h); details: Homo sapiens; for GI50: SF-295; for IC (TGI): SF-295, 48 h, read-out: TGI
HCT-15 (Colon cancer) = test: NCI-60 screen (SRB, 48 h); details: Homo sapiens; for GI50: HCT-15
MOLT-4 (Leukemia) = test: NCI-60 screen (SRB, 48 h); details: Homo sapiens; for GI50: MOLT-4
IGROV1 (Ovarian cancer) = test: NCI-60 screen (SRB, 48 h)
[2] = tested on: MDA-MB-468 (Breast cancer); test: cells; details: Homo sapiens; for GI50: MDA-MB-468; for IC (TGI): MDA-MB-468, 48 h, read-out: TGI
HOP-92 (NSC lung cancer) = test: NCI-60 screen (SRB, 48 h); details: Homo sapiens; for GI50: HOP-92; for IC (TGI): HOP-92, 48 h, read-out: TGI
TK-10 (Renal cancer) = test: NCI-60 screen (SRB, 48 h); details: Homo sapiens; for GI50: TK-10; for IC (TGI): TK-10, 48 h, read-out: TGI
Leukemia subpanel = test: cells; details: Homo sapiens; for IC (TGI): 48 h, read-out: TGI MG_MID; for GI50: read-out: GI50 MG_MID; for CC50: read-out: LC50 MG_MID
[3] = tested on: A549/ATCC (NSC lung cancer); test: NCI-60 screen (SRB, 48 h); details: Homo sapiens; for GI50: A549; for IC (TGI): A549, 48 h, read-out: TGI
Colon Cancer subpanel = test: NCI-60 screen, subpanel; details: Homo sapiens; for IC (TGI): 48 h, read-out: TGI MG_MID; for GI50: read-out: GI50 MG_MID
[4] = tested on: NIH 3T3 (non-malignant mouse fibroblasts); test: SRB cytotoxicity assay, 72 h; type: cell-based; details: NIH 3T3, 72 h, cut-off 30 µM
Experimental: (§1) The cytotoxicity of compounds 1–20 was evaluated by means of a colorimetric sulforhodamine B (SRB) assay. For all compounds, the EC50 values were determined for the human tumor cell lines A375 (malignant melanoma), HT29 (colorectal carcinoma), MCF-7 (breast carcinoma), A2780 (ovarian carcinoma), FaDu (hypopharyngeal carcinoma), and NIH 3T3 (non-malignant mouse fibroblasts).
(§2) In short, exponentially growing cells were seeded into 96-well plates on day 0 at the appropriate cell densities to prevent confluence of the cells during the period of experiment. After 24 h, the cells were treated with serial dilutions of the compounds (0–30 µM) for 72 h. The final concentration of DMSO never exceeded 0.5%, which was non-toxic to the cells. After a 72 h treatment, the supernatant medium from the 96-well plates was discarded, and the cells were fixed with 10% TCA. For a thorough fixation, the plates were allowed to rest at 4 °C. After fixation, the cells were washed in a strip washer. The washing was done four times with water using alternate dispensing and aspiration procedures. The plates were then dyed with 100 µL of 0.4% SRB for about 20 min. After dying, the plates were washed with 1% acetic acid to remove the excess of the dye and allowed to air-dry overnight. Tris base solution (200 µL, 10 mM) was added to each well and absorbance was measured at λ = 570 nm (using a 96 well plate reader, Tecan Spectra, Crailsheim, Germany). The percentages of surviving cells relative to untreated controls were determined.

OVCAR-5 (Ovarian cancer) = test: NCI-60 screen (SRB, 48 h); details: for GI50: OVCAR-5; for IC (TGI): OVCAR-5, 48 h, read-out: TGI
[5] = tested on: A375 (malignant melanoma); test: SRB cytotoxicity assay, 72 h; type: cell-based, human; details: A375, 72 h, cut-off 30 µM
Experimental: as §1, §2

[6] = tested on: FaDu (hypopharyngeal carcinoma); test: SRB cytotoxicity assay, 72 h; type: cell-based, human; details: cut-off 30 µM
Experimental: as §1, §2

MCF-7 (breast carcinoma) = test: SRB cytotoxicity assay, 72 h; type: cell-based, human; details: MCF-7, 72 h, cut-off 30 µM
Experimental: as §1, §2

[7] = tested on: HT29 (colorectal carcinoma); test: SRB cytotoxicity assay, 72 h; type: cell-based, human; details: HT29, 72 h, cut-off 30 µM
Experimental: as §1, §2

[8] = tested on: A2780 (ovarian carcinoma); test: SRB cytotoxicity assay, 72 h; type: cell-based, human; details: A2780, 72 h, cut-off 30 µM
Experimental: as §1, §2

SNB-19 (CNS cancer) = test: NCI-60 screen (SRB, 48 h); details: Homo sapiens; for GI50: SNB-19; for IC (TGI): SNB-19, 48 h, read-out: TGI
CAKI-1 (Renal cancer) = test: NCI-60 screen (SRB, 48 h); details: Homo sapiens; for GI50: CAKI-1; for IC (TGI): CAKI-1, 48 h, read-out: TGI; for CC50: CAKI-1, read-out: LC50
HCT-116 (Colon cancer) = test: NCI-60 screen (SRB, 48 h); details: Homo sapiens; for GI50: HCT-116; for IC (TGI): read-out: TGI
SN12C (Renal cancer) = test: NCI-60 screen (SRB, 48 h); details: for IC (TGI): 48 h, read-out: TGI
[9] = tested on: MDA-MB-31/ATCC (Breast cancer); test: NCI-60 screen (SRB, 48 h); details: Homo sapiens

SMILES: C=C(C)[C@@H]1CC[C@]2(COS(=O)(=O)c3ccc(C)cc3)CC[C@]3(C)[C@@H](CC[C@@H]4[C@@]5(C)CCCNC(C)(C)[C@@H]5CC[C@]43C)[C@@H]12 [Compound 12]
- GI50 [1]: 1.75 µM
- GI50 (CCRF-CEM (Leukemia)): 2.28 µM
- CC50 (CCRF-CEM (Leukemia)): > 100 µM
- GI50 (U251 (CNS cancer)): 1.75 µM
- GI50 (SF-295 (CNS cancer)): 1.6 µM
- IC (TGI) (SF-295 (CNS cancer)): 3.01 µM
- GI50 (HCT-15 (Colon cancer)): 1.38 µM
- GI50 (MOLT-4 (Leukemia)): 1.62 µM
- IC (TGI) (MOLT-4 (Leukemia); MOLT-4, 48 h, read-out: TGI): 3.59 µM
- GI50 (IGROV1 (Ovarian cancer); Homo sapiens, IGROV-1): 1.84 µM
- Growth % of the Most Sensitive Cell Lines (IGROV1 (Ovarian cancer); IGROV1, 1 dose 10 µM): −87.10%
- GI50 [2]: 1.74 µM
- IC (TGI) [2]: 3.33 µM
- GI50 (HOP-92 (NSC lung cancer)): 1.54 µM
- IC (TGI) (HOP-92 (NSC lung cancer)): 3.01 µM
- GI50 (TK-10 (Renal cancer)): 1.66 µM
- IC (TGI) (TK-10 (Renal cancer)): 3.23 µM
- IC (TGI) (Leukemia subpanel): 4.06 µM
- GI50 (Leukemia subpanel): 1.83 µM
- CC50 (Leukemia subpanel): > 100 µM
- GI50 [3]: 1.87 µM
- IC (TGI) [3]: 3.5 µM
- IC (TGI) (Colon Cancer subpanel): 3.37 µM
- GI50 (Colon Cancer subpanel): 1.73 µM
- EC50 ([4]; Mus musculus, NIH3T3, read-out: EC50): 1.94 ± 0.2 µM
- GI50 (OVCAR-5 (Ovarian cancer); Homo sapiens): 1.64 µM
- IC (TGI) (OVCAR-5 (Ovarian cancer); Homo sapiens): 3.13 µM
- Growth % of the Most Sensitive Cell Lines (OVCAR-5 (Ovarian cancer); OVCAR-5, 1 dose 10 µM): −87.72%
- EC50 ([5]; Homo sapiens, A-375, 72 h, read-out: EC50): 2.03 ± 0.1 µM
- EC50 ([6]; Homo sapiens, read-out: EC50): 1.59 ± 0.1 µM
- EC50 (MCF-7 (breast carcinoma); Homo sapiens, MCF7, read-out: EC50): 1.63 ± 0.1 µM
- EC50 ([7]; Homo sapiens, HT-29, read-out: EC50): 1.96 ± 0.3 µM
- EC50 ([8]; Homo sapiens, read-out: EC50): 1.68 ± 0.1 µM
- GI50 (SNB-19 (CNS cancer)): 2.04 µM
- IC (TGI) (SNB-19 (CNS cancer)): 3.68 µM
- GI50 (CAKI-1 (Renal cancer)): 1.74 µM
- IC (TGI) (CAKI-1 (Renal cancer)): 3.15 µM
- CC50 (CAKI-1 (Renal cancer)): 5.71 µM
- GI50 (HCT-116 (Colon cancer)): 1.79 µM
- IC (TGI) (HCT-116 (Colon cancer); HCT-116, 48 h): 3.33 µM
- Growth % of the Most Sensitive Cell Lines (SN12C (Renal cancer); 1 dose 10 µM): −94.44%
- GI50 (SN12C (Renal cancer); Homo sapiens): 1.88 µM
- IC (TGI) (SN12C (Renal cancer); Homo sapiens): 3.37 µM
- GI50 [9]: 1.88 µM

SMILES: CC1(C)CC[C@]2(CO)CC[C@]3(C)C(=CC[C@@H]4[C@@]5(C)CCCNC(C)(C)[C@@H]5CC[C@]43C)[C@@H]2C1 [Compound 3, azepanoerythrodiol]
- GI50 [1]: 1.11 µM
- IC (TGI) ([1]; NCI-H23, 48 h, read-out: TGI): 24.6 µM
- CC50 ([1]; NCI-H23, read-out: LC50): 54.5 µM
- GI50 (CCRF-CEM (Leukemia)): 2.41 µM
- IC (TGI) (CCRF-CEM (Leukemia); 48 h, read-out: TGI): 8.96 µM
- CC50 (CCRF-CEM (Leukemia)): > 100 µM
- GI50 (U251 (CNS cancer)): 1.94 µM
- IC (TGI) (U251 (CNS cancer); U-251, 48 h, read-out: TGI): 4.18 µM
- CC50 (U251 (CNS cancer); U-251, read-out: LC50): 9 µM
- GI50 (SF-295 (CNS cancer)): 1.77 µM
- IC (TGI) (SF-295 (CNS cancer)): 3.62 µM
- CC50 (SF-295 (CNS cancer); SF-295, read-out: LC50): 7.4 µM
- GI50 (HCT-15 (Colon cancer)): 3.06 µM
- IC (TGI) (HCT-15 (Colon cancer); HCT-15, 48 h, read-out: TGI): 1.04 µM
- CC50 (HCT-15 (Colon cancer); HCT-15, read-out: LC50): 42.3 µM
- GI50 (MOLT-4 (Leukemia)): 2.5 µM
- CC50 (MOLT-4 (Leukemia); MOLT-4, read-out: LC50): > 100 µM
- GI50 [2]: 1.79 µM
- IC (TGI) [2]: 3.74 µM
- CC50 ([2]; MDA-MB-468, read-out: LC50): 7.81 µM
- GI50 (HOP-92 (NSC lung cancer)): 1.36 µM
- IC (TGI) (HOP-92 (NSC lung cancer)): 30.7 µM
- CC50 (HOP-92 (NSC lung cancer); HOP-92, read-out: LC50): 6.92 µM
- GI50 (TK-10 (Renal cancer)): 4.64 µM
- IC (TGI) (TK-10 (Renal cancer)): 16.7 µM
- CC50 (TK-10 (Renal cancer); TK-10, read-out: LC50): 49.9 µM
- IC (TGI) (Leukemia subpanel): 54.8 µM
- GI50 (Leukemia subpanel): 2.03 µM
- CC50 (Leukemia subpanel): > 100 µM
- GI50 [3]: 4.62 µM
- IC (TGI) [3]: 17.8 µM
- CC50 ([3]; A549, read-out: LC50): 52.4 µM
- IC (TGI) (Colon Cancer subpanel): 3.3 µM
- GI50 (Colon Cancer subpanel): 1.99 µM
- CC50 (Colon Cancer subpanel; read-out: LC50 MG_MID): 12.4 µM
- EC50 [4]: n.s.
- GI50 (OVCAR-5 (Ovarian cancer); Homo sapiens): 11.9 µM
- IC (TGI) (OVCAR-5 (Ovarian cancer); Homo sapiens): 24.6 µM
- CC50 (OVCAR-5 (Ovarian cancer); Homo sapiens, OVCAR-5, read-out: LC50): 51 µM
- EC50 [5]: n.s.
- EC50 [6]: n.s.
- EC50 (MCF-7 (breast carcinoma)): n.s.
- EC50 [7]: n.s.
- EC50 [8]: n.s.
- GI50 (SNB-19 (CNS cancer)): 11.7 µM
- IC (TGI) (SNB-19 (CNS cancer)): 2.61 µM
- CC50 (SNB-19 (CNS cancer); SNB-19, read-out: LC50): 58.1 µM
- GI50 (CAKI-1 (Renal cancer)): 3.05 µM
- IC (TGI) (CAKI-1 (Renal cancer)): 13.7 µM
- CC50 (CAKI-1 (Renal cancer)): 53.6 µM
- GI50 (HCT-116 (Colon cancer)): 1.64 µM
- activity at 10 µM (HCT-116 (Colon cancer); HCT-116, 48 h, read-out: Growth % of the Most Sensitive Cell Lines): -85.8%
- IC (TGI) (HCT-116 (Colon cancer); HCT-116, 48 h): 3.11 µM
- CC50 (HCT-116 (Colon cancer); HCT-116, read-out: LC50): 5.92 µM
- GI50 (SN12C (Renal cancer); Homo sapiens): 4.02 µM
- IC (TGI) (SN12C (Renal cancer); Homo sapiens): 16.8 µM
- CC50 (SN12C (Renal cancer); Homo sapiens, read-out: LC50): 45.6 µM
- GI50 [9]: 3.5 µM
- IC (TGI) ([9]; 48 h, read-out: TGI): 13 µM
- CC50 ([9]; read-out: LC50): 45.6 µM
